Assay results: patent publication US20180116993A1, “MODULATORS OF FARNESOID X RECEPTOR AND METHODS FOR THE USE THEREOF” (XIAMEN UNIVERSITY, priority 2015, published 2018)
Marks after values point to notes of the source that are not given here.

Experiments:
[1] = system: genes related to metabolism in liver of KK-Ay mice; test: Liver mRNA levels of metabolism genes in KK-Ay mice (RT-PCR); assay type: in vivo, mouse; settings: 20 mg/kg for 14 days
Description: (§1) 8-10 weeks age mice were maintained as example 4, and fed with high-fat diet (Research Diets, D12492). Mice were i.p. injected with compounds once daily for 7, 10, 11 or 14 days as indicated in each table. After the last compounds injection, mice were fasted for 6 hours with free access to water, and then sacrificed. Part of each liver was fixed in 4% paraformaldehyde for H&E staining, and other liver tissues were stored in liquid nitrogen for enzyme activity measurement and gene expression analysis by RT-PCR. The serums were collected to measure metabolic parameters, including serum glucose, insulin, cholesterol, free fatty acid (FFA) and triglyceride levels. Serum glucose was analyzed using glucose oxidase method (Applygen, Beijing, China). The blood glucose in Table 11 was measured with Berenger blood glucose test strips (B/BRAUN, German) from blood by cutting mice tail after the 6th injection and following fast for 16 hours. Serum cholesterol and FFA were analyzed using Cholesterol Assay Kit and FFA Assay Kit (Bioassay Systems, USA; Nanjing Jiancheng Bioengineering Institute, China; FFA ELISA, R&D, USA), respectively. Serum triglyceride was analyzed using Triglyceride Assay Kit (Bioassay Systems, USA; WAKO Chemicals Inc., Japan; Applygen, Beijing, China). Liver triglyceride was analyzed using Tissue triglyceride assay kit (Applygen, Beijing, China). Serum insulin levels were measured by the Ultra Sensitive Mouse Insulin ELISA Kit (Crystal Chem. Inc., USA). RNA was isolated using Tissue RNA kit (Omega Bio-Tek, GA). The first strand cDNA were obtained by TAKARA reverse transcription kit. Real-time quantitative PCR were performed on a CFX96™ Real-Time PCR Detection System (Bio-Rad) using SYBR Premix Ex Taq™ (TAKARA). Relative mRNA expression levels were normalized to actin levels.
Triglyceride accumulation is due to the imbalance between triglyceride synthesis and clearance. One key gene controlling hepatic lipogenesis is SREBP-1c, whose up-regulation has been implicated in occurrence of hepatic steatosis. Liver-specific inhibition of ChREBP improves hepatic steatosis and insulin resistance in ob/ob mice (see e.g., Renaud (2006) Diabetes, 55(8):2159-70.). […] The gene expression pattern in KK-Ay mice liver further explained the underlying molecular mechanism for the reduction of lipid accumulation by the FXR-ligand compounds (Table 9).

[2] = system: KK-Ay mice; test: Serum metabolic parameters in high-fat diet fed diabetic KK-Ay mice; assay type: in vivo, mouse; settings: serum, 20 mg/kg for 14 days
Source text: KK-Ay mice (KK/Upj-Ay/J) are animal models with moderate obese and diabetes with insulin resistance. KK-Ay mice develop hyperglycemia, hyperinsulinemia, glucose intolerance and obesity as well as fat accumulation in liver by eight weeks of age. Pancreatic islets are hypertrophied and the β-cells are degranulated. db/db mice (BKS.Cg-Dockr+/+ Lepr^db/Jnju) are animal models of type II diabetes. They have the phenotype of insulin resistance. These model mice were used to detect the functions of our compounds on metabolic diseases.
as §1

[3] = vehicle = 1, listed as tschimganine
[4] = vehicle = 1, listed as feroline

SMILES	mRNA levels in liver, CHREBP ([1]; vehicle = 1)	mRNA levels in liver, FDFT1 ([1]; vehicle = 1)	mRNA levels in liver, G6PC ([1]; vehicle = 1)	mRNA levels in liver, GK ([1]; vehicle = 1)	mRNA levels in liver, SREBP1c ([1]; vehicle = 1)	mRNA levels in liver, CHREBP [1, 3]	mRNA levels in liver, SREBP1c [1, 3]	FFA (μM) [2]	Glucose (mg/dl) [2]	Triglyceride (mg/dl) [2]	mRNA levels in liver, CHREBP [1, 4]	mRNA levels in liver, SREBP1c [1, 4]	Cholesterol (mg/dl) [2]
COc1cc(C(=O)O[C@H]2C[C@H]3CC[C@]2(C)C3(C)C)ccc1O [Tschimganine]	0.43 ± 0.08^a	0.77 ± 0.06^a	0.59 ± 0.08^a	0.54 ± 0.07^a	0.38 ± 0.05^a	decreased	decreased	151 ± 14^a μM	123 ± 10^b mg/dl	134 ± 15^a mg/dl			
C/C1=C\CCC(C)(O)/C=C/C(C(C)C)C(OC(=O)c2ccc(O)cc2)C1 (stereo not drawn) [Feroline]	0.4 ± 0.1^b	0.75 ± 0.1^a	0.66 ± 0.07^a	0.74 ± 0.11	0.3 ± 0.08^b			122 ± 30^b μM	177 ± 16^a mg/dl	136 ± 8^a mg/dl	decreased	decreased	116 ± 10^a mg/dl
